# In patent publication US5464617A, “β-lactam compounds” (Hoffmann-La Roche Inc., priority 1994, dated 1995):
# Where a name gives a salt, the structure may show the parent alone.
# Key:
# [1] = tested on: Citrobacter freundii 1982; test: MIC in vitro of a 1:4 combination of ceftriaxone with a compound of formula I (Test D); type: cell-based; conditions: test D
# Experimental: The minimum inhibitory concentration in vitro ([…]) of a 1:4 combination of ceftriaxone with a compound of formula I against Citrobacter freundii 1982 was measured and compiled in Table 2 hereinafter.
# E. coli 1346 = test: Antibacterial activity of the products per se, serial dilution method in liquid medium (Test E); type: cell-based; conditions: test E, product per se
# Text: The antibacterial activity of the products per se is illustrated on the basis of Table 3 hereinafter, the minimum inhibitory concentration […] in vitro against E. coli 1346 being determined using the serial dilution method in liquid medium: […]
# [2] = Table 4, 1:4 combination of ceftriaxone with the compound
Compound,"MIC C. freundii 1982 (D) [1, 2] [µg/mL]",MIC E. coli 1346 (E) (E. coli 1346; Table 4) [µg/mL],"MIC C. freundii 1982 (D) ([1]; Table 5, particularly preferred products, 1:4 combination with ceftriaxone) [µg/mL]","MIC E. coli 1346 (E) (E. coli 1346; Table 5, particularly preferred products) [µg/mL]"
"O=C(NCc1ccncc1)OCC1=C(C(=O)O)N2C(=O)[C@@H]3[C@H]2[C@H](C1)CN3C(=O)C(F)(F)F [100(b), (1aS,3aR,6bR)-1-Oxo-5-(pyridin-4-ylmethylcarbamoyloxymethyl)-2-trifluoroacetyl-1a,2,3,3a,4,6b-hexahydro-1H-2,6a-diazacyclobut[cd]indene-6-carboxylic acid sodium salt]",1,2,,
"Cn1nnnc1SCC1=C(C(=O)O)N2C(=O)[C@@H]3[C@H]2[C@@H](CN3C(=O)Nc2ccc(O)cc2)S1 [41(d), (1aS,3aR,6bS)-2-(4-Hydroxy-phenylcarbamoyl)-5-(1-methyl-1H-tetrazol-5-ylsulphanylmethyl)-1-oxo-4-thia-1,1a,2,3,3a,6b-hexahydro-2,6a-diazacyclobut[cd]indene-6-carboxylic acid sodium salt]",0.5,> 32,,
"O=C(Nc1ccc(O)cc1)OCC1=C(C(=O)O)N2C(=O)[C@@H]3[C@H]2[C@H](C1)CN3C(=O)C(F)(F)F [90(b), (1aS,3aR,6bR)-5-(4-Hydroxy-phenylcarbamoyloxymethyl)-2-trifluoroacetyl-1-oxo-1a,2,3,3a,4,6b-hexahydro-1H-2,6a-diazacyclobut[cd]indene-6-carboxylic acid sodium salt]",1,0.5,,
"O=CN1C[C@H]2OC(CSc3nnnn3CC(=O)NOC(c3ccccc3)(c3ccccc3)c3ccccc3)=C(C(=O)O)N3C(=O)[C@@H]1[C@@H]23 [38(d), (1aS,3aR,6bS)-2-Formyl-1-oxo-5-(1-(trityloxycarbamoylmethyl)-1H-tetrazol-5-ylsulphanylmethyl)-1,1a,2,3,3a,6b-hexahydro-4-oxa-2,6a-diazacyclobut[cd]indene-6-carboxylic acid sodium salt]",128,> 32,,
"NC(=O)Cn1nnnc1SCC1=C(C(=O)O)N2C(=O)[C@@H]3[C@H]2[C@@H](CN3C=O)O1 [38(b), (1 aS ,3aR, 6 bS )-5-(1-Carbamoylmethyl-1H-tetrazol-5-yl-sulfanylmethyl)-2-formyl-1-oxo-1,1a,2,3,3a,6b-hexahydro-4-oxa-2,6a-diaza-cyclobut[cd]indene-6-carboxylic acid sodium salt]",4,8,,
"O=C(O)C1=C(CSc2ccncc2)S[C@@H]2CN(C(=O)Nc3ccc(O)cc3)[C@@H]3C(=O)N1[C@@H]32 [41(b), (1aS,3aR,6bS)-2-(4-Hydroxy-phenylcarbamoyl)-1-oxo-5-(pyridin-4-ylsulphanylmethyl)-4-thia-1,1a,2,3,3a,6b-hexahydro-2,6a-diazacyclobut[cd]indene-6-carboxylic acid sodium salt]",4,> 32,,
"CC(=O)N1C[C@H]2OC(CSc3nnc(N)s3)=C(C(=O)O)N3C(=O)[C@@H]1[C@@H]23 [Example 33, (1aS,3aR,6bS)-2-Acetyl-5-(5-amino-1,3,4-thiadiazol-2-ylsulphanylmethyl)-1-oxo-1,1a,2,3,3a,6b-hexahydro-4-oxa-2,6a-diazacyclobut[cd]indene-6-carboxylicacid sodium salt]",2,2,,
"O=C(O)C1=C(CSc2nnnn2CC(=O)N2CCOCC2)O[C@@H]2CN[C@@H]3C(=O)N1[C@@H]32 [29(l), (1aS,3aR,6bS)-5-(1-(2-Morpholin-4-yl-2-oxo-ethyl)-1H-tetrazol-5-ylsulphanylmethyl)-1-oxo-1,1a,2,3,3a,6 b-hexahydro-4-oxa-2,6a-diazacyclobut[cd]indene-6-carboxylic acid]",32,> 32,,
"O=C(O)C1=C(CSc2ccncc2)C[C@@H]2CN(C(=O)C(F)(F)F)[C@@H]3C(=O)N1[C@H]23 [19(g), (1aS,3aR,6bR)-1-Oxo-5-(pyridin-4-ylsulphanylmethyl)-2-trifluoroacetyl-1a,2,3,3a,4,6b-hexahydro-1H-2,6a-diazacyclobut[cd]indene-6-carboxylic acid sodium salt]",,,1,1
"Cc1nnc(SCC2=C(C(=O)O)N3C(=O)[C@@H]4[C@H]3[C@@H](CN4C(=O)Nc3ccc(O)cc3)S2)s1 [41(c), (1aS,3aR,6bS)-2-(4-Hydroxy-phenylcarbamoyl)-5-(5-methyl-1,3,4-thiadiazol-2-ylsulphanylmethyl)-1-oxo-4-thia-1,1a,2,3,3a,6b-hexahydro-2,6a-diazacyclobut[cd]indene-6-carboxylic acid sodium salt]",1,> 32,,
O=C(O)C1=C(CO)S[C@@H]2CN(C(=O)Nc3ccc(O)cc3)[C@@H]3C(=O)N1[C@@H]32 [41(d) Byproduct],1,> 32,,
"Cc1nnc(SCC2=C(C(=O)O)N3C(=O)[C@@H]4[C@H]3[C@@H](CN4C(=O)Nc3ccc(O)cc3)O2)s1 [Example 31(a), (1aS,3aR,6bS)-2-(4-Hydroxy-phenylcarbamoyl)-5-(5-methyl-1,3,4-thiadiazol-2-ylsulphanylmethyl)-1-oxo-1,1a,2,3,3a,6 b-hexahydro-4-oxa-2,6a-diazacyclobut[cd]indene-6-carboxylic acid sodium salt]",0.5,8,,
"C=CC1=C(C(=O)O)N2C(=O)[C@@H]3[C@H]2[C@H](C1)CN3C(=O)Nc1ccc(C(N)=O)cc1 [46(b), (1aS,3aR,6bR)-2-(4-Carbamoyl-phenylcarbamoyl)-1-oxo-5-vinyl-1a,2,3,3a,4,6b-hexahydro-1H-2,6a-diazacyclobut[cd]indene-6-carboxylic acid sodium salt]",0.5,> 32,,
"O=CN1C[C@H]2OC(CSc3nnnn3CC(=O)NC3CC3)=C(C(=O)O)N3C(=O)[C@@H]1[C@@H]23 [Example 37, (1aS,3aR,6bS)-5-(1-Cyclopropylcarbamoylmethyl-1H-tetrazol-5-ylsulphanylmethyl)-2-formyl-1-oxo-1,1a,2,3,3a,6b-hexahydro-4-oxa-2,6a-diazacyclobut[cd]indene-6-carboxylic acid sodium salt]",32,32,,
"NC(=O)OCC1=C(C(=O)O)N2C(=O)[C@@H]3[C@H]2[C@H](C1)CN3C(=O)CSc1ccncc1 [58(g), (1aS,3aR,6bR)-5-Carbamoyloxymethyl-1-oxo-2-pyridin-4-ylsulphanylacetyl-1a,2,3,3a,4,6b-hexahydro-1H-2,6a-diazacyclobut[cd]indene-6-carboxylic acid sodium salt]",0.25,8,,
